Results: paper PMC4841536, “Characterization of the Anti-HCV Activities of the New Cyclophilin Inhibitor STG-175” (PLoS ONE, 2016)
Read-outs that look alike come from different tables or passages of the source.

Experiments:
[1] = system: subgenomic Con1 (GT1b) replicon in Huh-7 cells; format: cell-based, hepatitis C virus; details: for passage at which resistant variants emerged (CypI comparison): Fig 3C
Method: Huh-7 cell expressing subgenomic Con1 (GT1b) replicon were seeded in a 10 cm dish at a density of 3 × 10^5 cells per culture flask in complete DMEM (with G418) with STG-175 or selected drugs. Cells were grown until they reached 90% confluence, trypsinized and re-seeded at the same cell concentration in a new 10-cm dish with the same drug concentration. Cells were passaged 22 times in the presence of drugs. At each passage, sample of cells were collected, RNA extracted according to the manufacturer's instructions and analyzed by RT-PCR for HCV RNA levels.
Fig 3 Replicon clearance, replication rebound and resistance analyses. […] Then drugs were removed to allow viral replication rebound to occur. At each passage, samples of cells were collected, RNA extracted and analyzed by RT-PCR for HCV RNA levels. B. Emergence of resistance: Con1 replicon Huh-7 cells were passaged 22 times in the absence or presence of STG-175 or selected DAAs. At each passage, sample of cells were collected, RNA extracted and analyzed by RT-PCR for HCV RNA levels. C. […] Data are expressed as number of HCV RNA copies per cell. […] Data are expressed as mean of relative light units and calculated EC50s are presented. […] E. Degree of resistance of D320E and Y321N Con1 variants: Left panel. Wild-type (WT), D320E and D320/Y321N NS5A Con1 RNA were electroporated into Huh7.5.1 cells and replication monitored over 8 days by quantifying the levels of intracellular HCV RNA. Right panel. Same as just above except that increasing concentrations of STG-175 were added at the time of the electroporation. […] STG-175 is taken as the substance from the printed x-axis title 'STG-175 in Log nM'.
We then examined the development of resistance to STG-175. GT1b Con1 sub-genomic replicon cells were grown in the presence of STG-175 (0.25 and 1 μM), telaprevir (2.5 and 10 μM), boceprevir (2.5 and 10 μM), daclatasvir 100 pM and 1 nM) or a combination of STG-175 (0.25 μM) with either telaprevir (2.5 μM), boceprevir (2.5 μM) or daclatasvir (100 pM) for 22 successive passages. At each passage, fresh drug was added and a sample of cells was taken to quantify HCV RNA levels by RT-qPCR.

[2] = system: HCV in mixed PBMCs, NTCP-Huh7 and Huh7.5.1 cells; test: Dual/triple co-infection in cell co-cultures, HCV readout; format: cell-based, hepatitis C virus
[3] = system: HCV GT4a subgenomic replicon ED43/SG-Feo; test: Luciferase reporter replicon antiviral assay, GT4a; format: cell-based; details: Hepatitis C virus
Method: (§1) The anti-HCV activity of STG-175 was conducted using a panel of luciferase reporter replicon cell lines including GT1a, GT1b, GT2a, GT3a and GT4a as we described previously. The GT1a subgenomic renilla luciferase reporter replicon H77 RLucP (7) was supplied by Dr. Delaney. The GT1b subgenomic firefly luciferase reporter replicon pFK-I389/NS3-3’ [29] was supplied by Dr. Bartenschlager. The GT1B subgenomic NS3, NS5A and NS5B mutants were created via homologous recombination using the In-Fusion HD Cloning kit (Clontech) as we described previously. The GT2a genomic luciferase reporter replicon Luc-Neo-JFH-1 was generated as previously. The plasmid pFK-Luc-JFH1 was supplied from Drs. […] The CellTiter-Fluor™ Cell Viability Assay is a non-lytic fluorescence assay, which measures the number of live cells. […] Luciferase activity was determined using the Luciferase Assay System (Promega) in a Berthold luminometer. […] Viable cells continuously convert resazurin to resorufin, increasing the overall fluorescence and color of the media surrounding cells.
(§2) Fig 2 Anti-HCV activities of STG-175 among GTs. […] Luciferase activity was determined using the Luciferase Assay System in a Berthold luminometer. […] Data are expressed as mean of relative light units and calculated EC50s are presented. […]

[4] = system: HCV GT1b subgenomic replicon pFK-I389/NS3-3’; test: Luciferase reporter replicon antiviral assay, GT1b; format: cell-based; details: Hepatitis C virus
Method: The anti-HCV activity of STG-175 was conducted using a panel of luciferase reporter replicon cell lines including GT1a, GT1b, GT2a, GT3a and GT4a as we described previously. The GT1a subgenomic renilla luciferase reporter replicon H77 RLucP (7) was supplied by Dr. Delaney. The GT1b subgenomic firefly luciferase reporter replicon pFK-I389/NS3-3’ [29] was supplied by Dr. Bartenschlager. The GT1B subgenomic NS3, NS5A and NS5B mutants were created via homologous recombination using the In-Fusion HD Cloning kit (Clontech) as we described previously. The GT2a genomic luciferase reporter replicon Luc-Neo-JFH-1 was generated as previously. The plasmid pFK-Luc-JFH1 was supplied from Drs. Wakita and Pietschmann and the XbaI site in the firefly luciferase gene and the NotI site in the EMCV IRES were used to take the Luciferase/Ubiquitin-NPT II (the neomycin phosphotransferase II gene) fusion cassette out of pFK389ILuc-Neo (wild-type replicon from GT1b) and inserted into the pFK-Luc-JFH1 plasmid, generating full-length Luc-Neo-JFH-1 [30]. The GT3a subgenomic firefly luciferase reporter replicon S52/SG-Feo (AI) and the GT4a subgenomic firefly luciferase reporter replicon ED43/SG-Feo [33] were supplied by Drs. Rice and Bukh. Replicons were stably expressed in Huh7.5 or Huh7.5.1 cells under G418 selection. On Day 1, cells (5,000) were plated into 96-well plates in complete DMEM containing 10% FCS. On Day 2, increasing drug concentrations were added to wells. On Day 5, 72 h post-drug addition, medium was removed and replaced with 100 μL of fresh medium. Hundred μL of the fluorogenic, cell-permeant peptide substrate glycyl-phenylalanyl-amino fluorocoumarin was added to wells as per manufacturer’s recommendation (Promega Corp, Madison, WI). The CellTiter-Fluor™ Cell Viability Assay is a non-lytic fluorescence assay, which measures the number of live cells. […] Medium was removed, cells washed and lysed in 20 μL of Cell Culture Lysis Reagent. Luciferase activity was determined using the Luciferase Assay System (Promega) in a Berthold luminometer. The alamarBlue® assay (Thermo Fischer Scientific) was used to measure CC50s for STG-175 on replicon cell lines. When cells are alive they maintain a reducing environment within the cytosol of the cell. […] Upon entering cells, resazurin is reduced to resorufin, a compound that is red in color and highly fluorescent. Viable cells continuously convert resazurin to resorufin, increasing the overall fluorescence and color of the media surrounding cells.
Fig 2 Anti-HCV activities of STG-175 among GTs. A. Replicon-containing cells (5,000) were exposed to increasing concentrations of the indicated drugs. Seventy-two hours post-drug addition, the fluorogenic, cell-permeant peptide substrate glycyl-phenylalanyl-amino fluorocoumarin was added to measure the number of live cells. […] Luciferase activity was determined using the Luciferase Assay System in a Berthold luminometer. B. A similar experiment was conducted with the GT1b replicon cell line in 0, 5, 10, 20 and 40% of human serum. Data are expressed as mean of relative light units and calculated EC50s are presented. […] C.

[5] = system: HCV GT1a subgenomic replicon H77 RLucP; test: Luciferase reporter replicon antiviral assay, GT1a; format: cell-based; details: Hepatitis C virus
Method: as §1, §2

CC=CCC(C)C(O)C1C(=O)NC(CC)C(=O)N(C)C(CSCCCCO)C(=O)N(C)C(CC(C)(C)O)C(=O)NC(C(C)C)C(=O)N(C)C(CC(C)C)C(=O)NC(C)C(=O)NC(C)C(=O)N(C)C(CC(C)C)C(=O)N(C)C(CC(C)C)C(=O)N(C)C(C(C)C)C(=O)N1C (stereo not shown) [STG-175]
cell culture passages required to detect emergence of resistant replicon colonies [1]: > 16 passages | passage at which resistant variants emerged (CypI comparison) ([1]; 0.25 μM of drug selection): 18 passage | passage at which resistance began ([1]; 1 μM drug pressure, first account (Fig 3B)): 19 passage | passage at which resistant variants emerged (CypI comparison) ([1]; 1 μM of drug selection): 21 passage | HCV infection in co-infection ([2]; STG-175 added together with virus): totally blocked | pre-established HCV infection in co-infection ([2]; added 3 days post-infection and then every 3 days): totally eradicated | EC50 ([3]; 72 h, read-out: EC50 GT4a): 15.2 nM | EC50 ([3]; read-out: EC50 GT4a (Fig 2D)): 15.2 nM | EC50 ([4]; 0% human serum, read-out: EC50 GT1b in human serum): 16 nM | EC50 ([4]; 5% human serum, read-out: EC50 GT1b in human serum): 15 nM | EC50 ([4]; 10% human serum, read-out: EC50 GT1b in human serum): 18.8 nM | EC50 ([4]; 20% human serum, read-out: EC50 GT1b in human serum): 22.2 nM | EC50 ([4]; 40% human serum, read-out: EC50 GT1b in human serum): 37.2 nM | EC50 ([4]; 72 h, 72 h post-drug addition, luciferase, read-out: EC50 GT1b): 15.1 nM | EC50 ([5]; 72 h post-drug addition, luciferase, read-out: EC50 GT1a): 13.5 nM | EC50 ([5]; Fig 2D table, unit inferred, read-out: EC50 GT1a (Fig 2D)): 13.5 nM
